Measurements taken from PubChem BioAssay (NCI).
Several values for one entry are separate records, joined by “and”; a condition that tells them apart may be missing. Equal values may be shown once.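 Test compounds were applied to cells in 96-well plates for 48 hours at 5 doses. GI50 is the concentration that inhibits growth by half. TGI marks complete inhibition of growth.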 Where a SMILES comes first, the peptide text is derived from it.

What was measured:
Assay in all cases: inhibition of tumour cell growth, NCI panel, 48 h
OVCAR-3 ovarian = system: OVCAR-3 ovarian
A549 NSCLC = system: A549 NSCLC
NCI-H522 lung = system: NCI-H522 lung
SK-OV-3 ovarian = system: SK-OV-3 ovarian
HCC-2998 colon = system: HCC-2998 colon
U251 CNS = system: U251 CNS
NCI-H23 lung = system: NCI-H23 lung
MDA-MB-231 breast = system: MDA-MB-231 breast
MOLT-4 leukemia = system: MOLT-4 leukemia
SK-MEL-28 melanoma = system: SK-MEL-28 melanoma

Compound | GI50 (OVCAR-3 ovarian) [µM] | TGI (OVCAR-3 ovarian) | GI50 (A549 NSCLC) | TGI (A549 NSCLC) | TGI (NCI-H522 lung) | GI50 (SK-OV-3 ovarian) [µM] | TGI (SK-OV-3 ovarian) | GI50 (HCC-2998 colon) [µM] | TGI (HCC-2998 colon) | GI50 (U251 CNS) [µM] | TGI (U251 CNS) | GI50 (NCI-H23 lung) [µM] | TGI (NCI-H23 lung) | TGI (MDA-MB-231 breast) [µM] | GI50 (MOLT-4 leukemia) [µM] | TGI (MOLT-4 leukemia) [µM] | TGI (SK-MEL-28 melanoma) | GI50 (NCI-H522 lung) [µM] | GI50 (MDA-MB-231 breast) [µM] | GI50 (SK-MEL-28 melanoma) [µM]
CC(C)CC(NC(=O)C(CC(C)C)NC(=O)C(Cc1cnc[nH]1)NC(=O)C(C)NC(=O)C(NC(=O)C(C)NC(=O)C(Cc1c[nH]c2ccccc12)NC(=O)C(CCC(=O)O)NC(=O)C(N)Cc1ccccc1)C(C)C)C(N)=O (stereo unspecified) (H-FEWAVAHLL-NH2; configuration not given here) | > 100 | > 100 µM | > 100 µM | > 100 µM | > 12.5 µM | > 100 | > 100 µM | > 100 | > 100 µM | > 100 | > 100 µM | > 100 | > 100 µM | > 12.5 | > 100 | > 100 | > 100 µM |  |  | 
COc1ccc(/C(C)=C(\c2ccc(Cl)cc2)c2ccc(OCCN3CCCC3)cc2)cc1F | 3.93 | 8.38 µM | 3.01 µM | 7.01 µM | 8.94 µM | 4.18 | 7.86 µM | 3.44 | 6.94 µM | 3.15 | 7.17 µM | 3.55 | 7.27 µM | 6.97 | 3.48 | 8.28 | 6.27 µM | 4.35 | 3.56 | 3.13
O=C(Nc1nccs1)c1cc2c(cc1Cl)Sc1nccn1S2(=O)=O | 15 | 28.3 µM | 23.8 µM | 63.4 µM | 2.85 µM | 24.5 | 63.9 µM | 15.9 | 29.4 µM | 17.2 | 31 µM | 16.9 | 33.7 µM | 36.2 | 19.1 | 42.1 | 37.6 µM | 1.23 | 19.5 | 20
O=C1/C(=C\C(Cl)=C/c2ccc([N+](=O)[O-])cc2)SC(=S)N1CCc1ccc(O)cc1 | 0.4 | 1.43 µM | 1.6 µM | 8.79 µM | 2.67 µM | 2.59 | 6.42 µM | 0.392 | 1.42 µM | 0.261 | 0.85 µM | 0.632 | 2.17 µM | 2.03 | 0.352 | > 100 | 1.96 µM | 0.502 | 0.449 | 0.626
O=C1OCc2c1cc(F)cc2[N+](=O)[O-] | > 100 | > 100 µM | > 100 µM | > 100 µM | > 100 µM | > 100 | > 100 µM | > 100 | > 100 µM | > 100 | > 100 µM | > 100 | > 100 µM | > 100 | > 100 | > 100 | > 100 µM | > 100 | > 100 | > 100
CCCc1cc2cc(-n3nc(C)c4c3CC(C)(C)CC4=O)cc(NC3CCC(O)CC3)c2c(=O)[nH]1 (stereo unspecified) | 0.58 | > 100 µM | 0.215 µM | > 100 µM | > 100 µM | 0.0892 | > 46.6 µM | 0.144 | > 100 µM | 0.607 | > 100 µM | 0.0584 | > 100 µM | 3.76 | 0.186 | > 100 | > 100 µM | 0.257 | 0.192 | 0.232
CC(=O)O[C@H]1C(=O)O[C@@H]2C[C@H]3C(C)=CC(=O)[C@@H](O)[C@]3(C)[C@H]3[C@@]4(O)OC[C@]32[C@@H]1[C@@H](C)[C@H]4O | 0.0134 | 0.172 µM and 0.12 µM | 0.23 µM and 0.431 µM | 3.32 µM and 3.93 µM | 0.226 µM and 0.0582 µM | 0.237 | 4.04 µM and 3.35 µM | 0.032 | 0.548 µM and 0.271 µM | < 0.01 | 0.049 µM and 0.0797 µM | < 0.0141 | 0.0904 µM and 0.453 µM | 0.399 | < 0.01 |  | 0.0577 µM and 0.142 µM | < 0.0116 |  | < 0.0104
CCN(CC)CCOc1ccc(/C(=C(\C)Cc2ccc(OC)cc2)c2ccc(OC(=O)NCc3ccccc3)cc2)cc1 | 1.85 | 3.47 µM | 2.15 µM | 4.7 µM | 4.24 µM | 5.11 | 18.7 µM | 1.84 | 3.62 µM | 1.83 | 3.43 µM | 3.24 | 13.3 µM | 3.47 | 2.11 | 5.73 | 3.44 µM | 1.93 | 1.86 | 1.82
Cc1n[nH]c(=S)n1/N=C/c1ccc(F)c(Oc2ccccc2)c1 | 44.6 | > 100 µM | 42.2 µM | > 100 µM | > 100 µM | > 100 | > 100 µM | 69.5 | > 100 µM | 50.3 | > 100 µM | 42.2 | > 100 µM | > 100 | 47.6 | > 100 | 82.6 µM | 48.2 | 41.2 | 7.1
COc1cc(/C=C/C(=O)c2ccc(Nc3ncnc4ccccc34)cc2)cc(OC)c1 | 4 | 13.5 µM | 3.2 µM | 14.4 µM | 30.1 µM | 3.6 | 10.7 µM | 1.79 | 3.38 µM | 2.24 | 6.75 µM | 5.08 | 38.2 µM | 49.1 | 2.4 | 17.1 | 34.4 µM | 6.69 | 13.5 | 15.4
O=C(Nc1ccccc1)Nc1cccc(-n2cc(-c3ccncc3)c(-c3ccc(O)c(Cl)c3)n2)c1 |  |  | 3.64 µM | > 100 µM | 6.73 µM | 6.02 | 40.7 µM | 3.19 | 9.79 µM | 2.17 | 6.06 µM | 3.82 | 21.4 µM | 5.23 | 2.92 | 9.03 | 18.6 µM | 2.26 | 1.98 | 3.27
COc1ccc(-c2nn(-c3cccc(NC(=O)Nc4ccc(Cl)c(C(F)(F)F)c4)c3)cc2-c2ccncc2)cc1Cl |  |  | 1.98 µM | > 100 µM | 6.77 µM | 4.31 | > 100 µM | 5.51 | 27 µM | 1.32 | 3.34 µM | 3.01 | 14.3 µM | 7.35 | 2.08 | 6.74 | 13.3 µM | 1.85 | 2.29 | 3.08
